Data reported in patent US20210330693A1, “HEPARANASE INHIBITORS AND THEIR USE AS ANTI-CANCER COMPOUNDS” (Wayne State University, priority 2018, published 2021).

What was measured:
[1] = test system: 4T1 mammary carcinoma cells; experiment: 4T1 experimental metastasis assay; format: in vivo, BALB/c mice; settings: IVIS imaging day 7; glycopolymer 100 μg/mouse i.p. 20 min before and together with the cells
Method: 4T1 Metastasis Assay. Luciferase-labeled 4T1 mammary carcinoma cells (1×10^5/mouse) were injected i.v. (n=6 mice/group) with vehicle alone (control, PBS), with positive control (heparin), or with GlcNS(6S)α((1,4)GlcA glycopolymer (DP=12, 100 μg/mouse) into BALB/c mice (i.p) 20 min prior to cell inoculation and also together with the cells. IVIS bioluminescent imaging was performed on day 7 after cell inoculation. For IVIS imaging, mice were injected intraperitoneally with D-luciferin substrate at 150 mg/kg and anesthetized with continuous exposure to isoflurane (EZAnesthesia, Palmer, Pa.). The experiment was repeated 3 times with similar results.
4T1 Metastasis Assay (Menhofer, et al., PLOS ONE 2014, 9, el 12542). Luciferase-labeled 4T1 breast carcinoma cells (1×10^5/mouse) were injected i.v (n=6 mice/group) with vehicle alone (control, PBS), with positive control (heparin), or with GlcNS(6S)α(1,4)GlcA glycopolymer (DP=12, 100 μg/mouse) into BALB/c mice (i.p) 20 min prior to cell inoculation and also together with the cells. IVIS bioluminescent imaging was performed on day 7 after cell inoculation. […] Light emitted from the bioluminescent cells is detected by the IVIS camera system with images quantified for tumor burden using a log-scale color range set at 5×10^4 to 1×10^7 and measurement of total photon counts per second (PPS) using Living Image software (Xenogen). […]

VEGF = target: T1, VEGF (Homo sapiens, UniProt P15692); experiment: Solution-based competitive BLI assay, VEGF; format: binding; settings: competition with immobilized biotin-heparin (18 kDa), 25° C., read-out: dissociation constant (apparent Kd) to VEGF
T1 construct: purchased R&D Systems
T1 sequence (P15692 27-191 isoform P15692-4): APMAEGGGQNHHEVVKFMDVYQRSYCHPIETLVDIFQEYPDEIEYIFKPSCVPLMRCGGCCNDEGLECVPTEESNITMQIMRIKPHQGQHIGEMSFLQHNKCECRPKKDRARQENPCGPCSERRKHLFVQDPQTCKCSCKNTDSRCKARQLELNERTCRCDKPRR
Method: (§1) Biolayer Interferometry Cross-Bioactivity Assay. BLI assays were performed on an Octet Red Instrument (fortéBIO) at 25° C. Immobilization and binding analysis were carried out at 1000 rpm using HBS-EP buffer.
(§2) Biolayer Interferometry (BLI) Assay. BLI assays were performed on an Octet Red Instrument (fortéBIO) at 25° C. Immobilization and binding analysis were carried out at 1000 rpm using HBS-EP buffer [10 mM HEPES, pH 7.4, 150 mM NaCl, 3.0 mM EDTA, and 0.005% (v/v) surfactant tween20]. A solution affinity assay, used to determine affinities of ligands by SPR analysis, was adopted to BLI (Cochran et al., Glycoconjugate J. 2009, 26, 577-587.). In this method, protein is mixed with various concentrations of ligand (glycopolymer C5A or heparin, 18 kDa). Free protein in this equilibrium mixture is tested for binding against immobilized heparin (all proteins are carrier-free and purchased from R&D Systems). Heparin-biotin (Creative PEGworks, 18 kDa, 1 biotin per HP polymer), 5 μg/mL was immobilized on to streptavidin biosensors (fortéBio) for 5 min. Binding experiments were carried out under conditions of mass transport. Binding was fitted to equation 1 (as taught in reference Chai, et al. Anal. Biochem. 2009, 395, 263-264.) using Graphpad Prism. BLI response was used in place of F and ligand (heparin/glycopolymer C5A) concentration was used in place of [metal]. […]

FGF-1 = target: T2, FGF-1 (Homo sapiens, UniProt P05230); experiment: Solution-based competitive BLI assay, FGF-1; format: binding; settings: competition with immobilized biotin-heparin (18 kDa), 25° C., read-out: dissociation constant (apparent Kd) to FGF-1
T2 construct: purchased R&D Systems
Method: as §1, §2

FGF-2 = target: T3, FGF-2 (Homo sapiens, UniProt P09038); experiment: Solution-based competitive BLI assay, FGF-2; format: binding; settings: competition with immobilized biotin-heparin (18 kDa), 25° C., read-out: dissociation constant (apparent Kd) to FGF-2
T3 construct: purchased R&D Systems
Method: as §1, §2

P-selectin = target: T4, P-selectin (Homo sapiens, UniProt P16109); experiment: Solution-based competitive BLI assay, P-selectin; format: binding; settings: HBS-EP buffer with 2 mM CaCl2, 2 mM MgCl2 and 0.5 mg/mL BSA
T4 construct: purchased R&D Systems
T4 sequence (P16109 42-830): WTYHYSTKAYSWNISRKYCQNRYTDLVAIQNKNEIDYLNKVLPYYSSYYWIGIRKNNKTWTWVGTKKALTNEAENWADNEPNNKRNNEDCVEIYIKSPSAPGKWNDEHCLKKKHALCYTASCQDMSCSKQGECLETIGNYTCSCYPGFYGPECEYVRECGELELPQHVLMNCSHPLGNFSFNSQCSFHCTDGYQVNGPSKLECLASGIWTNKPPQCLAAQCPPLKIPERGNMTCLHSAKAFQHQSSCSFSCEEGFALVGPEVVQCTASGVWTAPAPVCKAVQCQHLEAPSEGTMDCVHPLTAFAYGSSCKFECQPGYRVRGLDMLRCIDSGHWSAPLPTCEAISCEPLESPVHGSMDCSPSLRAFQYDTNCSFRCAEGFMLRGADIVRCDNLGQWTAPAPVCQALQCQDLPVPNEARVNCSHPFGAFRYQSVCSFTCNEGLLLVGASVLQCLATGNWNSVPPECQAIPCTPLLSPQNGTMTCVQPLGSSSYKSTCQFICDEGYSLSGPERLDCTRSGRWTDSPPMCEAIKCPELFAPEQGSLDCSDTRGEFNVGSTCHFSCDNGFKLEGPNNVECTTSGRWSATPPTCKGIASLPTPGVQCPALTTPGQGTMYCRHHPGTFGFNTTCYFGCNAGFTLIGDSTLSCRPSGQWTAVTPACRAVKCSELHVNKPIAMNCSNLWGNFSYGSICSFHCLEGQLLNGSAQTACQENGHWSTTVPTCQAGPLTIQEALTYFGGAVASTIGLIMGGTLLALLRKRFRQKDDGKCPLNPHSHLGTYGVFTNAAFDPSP
Method: as §1, §2

platelet factor-4 (PF4) = target: T5, platelet factor-4 (PF4) (Homo sapiens, UniProt P02776); experiment: Solution-based competitive BLI assay, PF4; format: binding; settings: competition with immobilized biotin-heparin (18 kDa), 25° C., read-out: dissociation constant (apparent Kd) to PF4
T5 construct: purchased R&D Systems
T5 sequence (P02776 32-101): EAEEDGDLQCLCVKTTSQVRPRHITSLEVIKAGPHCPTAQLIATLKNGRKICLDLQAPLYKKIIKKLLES
Method: as §1, §2

T2 sequence (P05230 whole entry, species assumed): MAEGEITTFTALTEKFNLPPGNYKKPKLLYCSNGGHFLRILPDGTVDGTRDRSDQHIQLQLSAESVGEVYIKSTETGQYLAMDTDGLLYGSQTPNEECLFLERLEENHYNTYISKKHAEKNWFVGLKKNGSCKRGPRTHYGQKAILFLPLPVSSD
T3 sequence (P09038 143-288, species assumed): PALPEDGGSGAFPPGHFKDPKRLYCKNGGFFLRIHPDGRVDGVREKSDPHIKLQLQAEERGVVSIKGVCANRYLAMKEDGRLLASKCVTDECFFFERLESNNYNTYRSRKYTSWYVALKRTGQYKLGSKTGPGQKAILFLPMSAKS

| Substance | antimetastatic effect, lung metastasis of 4T1 cells [1] | Kd (VEGF) | Kd (FGF-1) | Kd (FGF-2) | Kd (P-selectin) | Kd (platelet factor-4 (PF4)) |
| --- | --- | --- | --- | --- | --- | --- |
| Roneparstat | effect was similar | – | – | – | – | – |
| heparin [reference compound] | reduced the size of the metastasized lung tumor by half | 4.91 ± 1.55 nM | 4.6 ± 3.3 nM | 0.15 ± 0.11 nM | 125 ± 152 nM | 0.31 ± 0.028 nM |
